{"source": "patent US20240237646A1", "about": "“METHODS OF DECREASING PLANT INJURY AND IMPROVING CROP YIELD” (priority 2023, published 2024)", "key": {"[1]": {"system": "creeping bentgrass (Agrostis palustris) turf", "settings": "6 applications every two weeks, 8 visual ratings combined, trinexapac-ethyl 514, paclobutrazol 280, prohexadione-calcium 154, flurprimidol 15 g ai/ha, B Sure 19,091 ml/ha in mixtures", "quoted_text": "Each plant growth regulator (PGR) combination was applied in 2 gallons of water per 1,000 square feet and applications were made 6 times with application intervals every two weeks. Visual injury was rated 8 times between June 8th and August 11th on a percent scale from 0 to 100 where 0 equals no visual response and 100 equals complete plant death."}, "[2]": {"system": "genetically modified (GMO) soybeans engineered to resist 2,4-D", "assay": "Study, B Sure + herbicides in GMO soybeans (canopy rating)", "assay_type": "in vivo, soybean", "settings": "lactofen 218, 2,4-D choline 1064, chlorimuron 13 g ai/ha; for Canopy rating relative to % ground cover: GMO soybeans V3-R1, B Sure 1 pt/A in mixtures, larger = greater crop vigor; for % Increase in soybean canopy measure with B Sure ® added: herbicide + B Sure 1 pt/A compared to the herbicide applied alone", "text": "Treatments included 1) B Sure® 1 pt/A; 2) Lactofen 218 g ai/ha; 3) Lactofen 218 g ai/ha+B Sure® 1 pt/A; 4) 2,4-D choline 1064 g ai/ha; 5) 2,4-D choline 1064 g ai/ha+B Sure® 1 pt/A; 6) chlorimuron 13 g ai/ha; 7) chlorimuron 13 g ai/ha+B Sure® 1 pt/A. Adjuvants applied varied by treatment and were consistent with product label recommendations. A preemergence herbicide was applied to all treatments in order to reduce competition from weed species that would increase variability in the study. A canopy rating was made which evaluated the % ground cover differences of the soybeans associated with the various treatments. In these measurements, the larger ground cover number represents a greater amount of soybean leaf tissue which represents greater crop vigor and overall soybean health."}, "[3]": {"system": "genetically modified (GM) soybeans (Enlist E3® soybeans)", "assay": "Four field studies, B Sure + lactofen or 2,4-D in GM soybeans (yield)", "assay_type": "in vivo, Glycine max", "settings": "for Yield (bushels/acre): lactofen 210 g ai/ha, 2,4-D choline salt 2,527 g ai/ha, check 62.2", "procedure": "Four field studies were conducted in 2023 in the states of Ohio, Nebraska, Indiana, and Illinois to determine the influence of the “HYT plant ameliorant” B Sure® at 1,170 mls/ha on soybean (Glycine max) yield when applied in combinations with the herbicides lactofen at 210 g ai/ha and 2,4-D (as its choline salt) at 2,527 g ai/ha on genetically modified (GM) soybeans (Enlist E3® soybeans) created to tolerate applications of 2,4-D, glufosinate, and glyphosate. Treatments were applied using a water carrier with crop oil concentrate added to all treatments at 1% v/v and ammonium sulfate at 2.24 kg/ha added to herbicide containing treatments. Yields were adjusted to constant moisture and recorded in bushels/acre. […] All plots were maintained weed free."}, "[4]": {"system": "soybeans (Glycine max)", "settings": "fomesafen 350 g ai/ha alone", "text": "The study was arranged in a randomized complete block design with 6 replicates in conventionally tilled soybeans (Glycine max).\nHerbicides were applied in a water carrier of 20 gallons per acre and treatments were applied at first flower (V5/R1). All fomesafen treatments contained an adjuvant system of 1% v/v crop oil concentrate and 2.5% v/v urea ammonium nitrate as is consistent with product label instructions."}, "[5]": {"system": "creeping bentgrass (Agrostis stolonifera)", "assay": "Field study, B Sure + PCNB on creeping bentgrass (visual injury)", "settings": "PCNB 227 g ai/1,000 sq ft, B Sure 6 fl oz/1,000 sq ft in the mixture", "text": "PCNB was applied at 227 g ai/per 1,000 square feet. […] Treatments were applied on July 14th using an application volume of 2 gallons per 1,000 square feet. Creeping bentgrass injury ratings were made five times corresponding to 3, 7, 10, 14 and 28 days after application (DAA)."}, "[6]": {"system": "cotton (Gossypium hirsutum)", "assay": "Six field studies, B Sure + trifloxysulfuron in cotton (visual injury)", "assay_type": "in vivo", "settings": "trifloxysulfuron 8 g ai/ha alone, rated 2 to 3 weeks after application", "text": "The studies were arranged in a randomized complete block design with 4 replicates in conventionally tilled cotton. Evaluations were combined over locations and plots were maintained weed free over the duration of the trial.\nHerbicides were applied in a water carrier to cotton at three separate stages of growth: 1) cotyledon-2 leaf; 2) 3-4 leaf; and 3) 5 leaf or greater. All trifloxysulfuron treatments contained a nonionic surfactant at 0.25% v/v as is consistent with product label instructions. Treatments included in the trial were the following: 1) trifloxysulfuron 8 g ai/ha-cotyledon-2 leaf cotton; 2) trifloxysulfuron 8 g ai/ha+B Sure® 1,170 mls/ha-cotyledon-2 leaf cotton; 3) trifloxysulfuron 8 g ai/ha+B Sure® 2 pint/acre-cotyledon-2 leaf cotton; 4) trifloxysulfuron 8 g ai/ha-3-4 leaf cotton, 5) trifloxysulfuron 8 g ai/ha+B Sure® 1,170 mls/ha-3-4 leaf cotton; 6) trifloxysulfuron 8 g ai/ha+B Sure® 2,340 mls/ha-3-4 leaf cotton; 7) trifloxysulfuron 8 g ai/ha-5 leaf or greater cotton, 8) trifloxysulfuron 8 g ai/ha+B Sure® 1,170 mls/ha-5 leaf or greater cotton; 9) trifloxysulfuron 8 g ai/ha+B Sure® 2, 340 mls/ha-5 leaf or greater cotton; 10) Check."}}, "data": [{"compound": "CC(C)(C)[C@@H](O)[C@@H](Cc1ccc(Cl)cc1)n1cncn1", "note": "(racemic) [Paclobutrazol]", "values": [{"measurement": "% Phytotoxicity", "setting": "[1]", "value": 10, "unit": "%"}]}, {"compound": "C[N+](C)(C)CCO.O=C([O-])COc1ccc(Cl)cc1Cl", "note": "[2,4-D Choline, 2,4-D choline salt]", "values": [{"measurement": "Canopy rating relative to % ground cover", "setting": "[2]", "value": 6.18}, {"measurement": "% Increase in soybean canopy measure with B Sure ® added", "setting": "[2]", "value": 12.9, "unit": "%"}, {"measurement": "soybean yield increase over the check", "setting": "[3]; B Sure 1,170 mls/ha, lactofen 210 g ai/ha, 2,4-D 2,527 g ai/ha", "value": 3.1, "unit": "bushels/acre"}, {"measurement": "Yield (bushels/acre)", "setting": "[3]; B Sure 1,170 mls/ha", "value": 65.3, "unit": "bushels/acre"}]}, {"compound": "COc1cc(Cl)nc(NC(=O)NS(=O)(=O)c2ccccc2C(=O)O)n1", "note": "[Chlorimuron, chlorimuron]", "values": [{"measurement": "Canopy rating relative to % ground cover", "setting": "[2]", "value": 6.25}, {"measurement": "% Increase in soybean canopy measure with B Sure ® added", "setting": "[2]", "value": 10.9, "unit": "%"}]}, {"compound": "CS(=O)(=O)NC(=O)c1cc(Oc2ccc(C(F)(F)F)cc2Cl)ccc1[N+](=O)[O-]", "note": "[Fomesafen, fomesafen]", "values": [{"measurement": "Soybean Yield (% increase over untreated check)", "setting": "[4]", "value": 4.6, "unit": "%"}, {"measurement": "% Injury", "setting": "[4]; soybean, applied at V5/R1, visual scale 0-100", "value": 7, "unit": "%"}]}, {"compound": "CCOC(=O)C(C)OC(=O)c1cc(Oc2ccc(C(F)(F)F)cc2Cl)ccc1[N+](=O)[O-]", "note": "(centres unmarked) [Lactofen, lactofen]", "values": [{"measurement": "Canopy rating relative to % ground cover", "setting": "[2]", "value": 2.99}, {"measurement": "% Increase in soybean canopy measure with B Sure ® added", "setting": "[2]", "value": 7.4, "unit": "%"}, {"measurement": "Yield (bushels/acre)", "setting": "[3]; B Sure 1,170 mls/ha", "value": 61.5, "unit": "bushels/acre"}, {"measurement": "soybean yield reduction over the untreated check", "setting": "[3]; lactofen 210 g ai/ha", "value": 0.7, "unit": "bushels/acre"}]}, {"compound": "O=[N+]([O-])c1c(Cl)c(Cl)c(Cl)c(Cl)c1Cl", "note": "[PCNB, pentachloronitrobenzene]", "values": [{"measurement": "% Injury 3 DAA", "setting": "[5]; 3 days after application", "value": 20, "unit": "%"}, {"measurement": "% Injury 7 DAA", "setting": "[5]; 7 days after application", "value": 100, "unit": "%"}, {"measurement": "% Injury 10 DAA", "setting": "[5]; 10 days after application", "value": 100, "unit": "%"}, {"measurement": "% Injury 14 DAA", "setting": "[5]; 14 days after application", "value": 100, "unit": "%"}, {"measurement": "% Injury 28 DAA", "setting": "[5]; 28 days after application (end of trial)", "value": "~100", "unit": "%"}]}, {"compound": "COc1cc(OC)nc(NC(=O)NS(=O)(=O)c2ncccc2OCC(F)(F)F)n1", "note": "[Trifloxysulfuron, trifloxysulfuron]", "values": [{"measurement": "% Injury", "setting": "[6]; 3-4 leaf", "value": 15, "unit": "%"}, {"measurement": "% Injury", "setting": "[6]; 5+ leaf", "value": 5, "unit": "%"}, {"measurement": "% Injury", "setting": "[6]; Cotyledon-2 leaf", "value": 18, "unit": "%"}]}, {"compound": "CCOC(=O)C1CC(=O)C(=C(O)C2CC2)C(=O)C1", "note": "(centres unmarked) [Trinexapac-ethyl]", "values": [{"measurement": "% Phytotoxicity", "setting": "[1]", "value": 10, "unit": "%"}]}, {"compound": "Prohexadione-calcium", "values": [{"measurement": "% Phytotoxicity", "setting": "[1]", "value": 12, "unit": "%"}]}]}
